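Compound exposure: 48 hours, 5 concentrations, 96-well plates. The concentration for 50% growth inhibition is given as GI50. The concentration for full growth arrest is given as TGI.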
What was measured:
Assay in all cases: NCI tumour cell line growth inhibition, 48 h
[1] = tested on: UACC-257 melanoma
[2] = tested on: CAKI-1 renal
[3] = tested on: SW-620 colon
[4] = tested on: CCRF-CEM leukemia
[5] = tested on: OVCAR-8 ovarian
[6] = tested on: EKVX NSCLC
[7] = tested on: A549 NSCLC
[8] = tested on: SK-OV-3 ovarian
[9] = tested on: RPMI-8226 leukemia
[10] = tested on: MOLT-4 leukemia

| Compound | GI50 [1] [µM] | TGI [1] [µM] | GI50 [2] [µM] | TGI [2] [µM] | GI50 [3] [µM] | TGI [3] [µM] | GI50 [4] [µM] | TGI [4] [µM] | GI50 [5] [µM] | TGI [5] [µM] | GI50 [6] [µM] | TGI [6] [µM] | GI50 [7] [µM] | TGI [7] [µM] | GI50 [8] [µM] | TGI [8] [µM] | GI50 [9] [µM] | TGI [9] [µM] | GI50 [10] [µM] | TGI [10] [µM] |
| --- | --- | --- | --- | --- | --- | --- | --- | --- | --- | --- | --- | --- | --- | --- | --- | --- | --- | --- | --- | --- |
| COc1ccc(OC)c(-c2cn3nc(-c4c[nH]c5ccc(Br)cc45)sc3n2)c1 | 7.45 | 30.7 | 2.04 | 6.22 | 2.26 | 5.28 | 3.73 | > 100 | 3.01 | 9.3 | 2.83 | 11.4 | 2.31 | 5.31 | 9.01 | 22.8 | 3.19 | 20.4 |  |  |
| CCN(CCc1ccc(F)cc1)c1ccc(CO)c(Cl)c1 | 1.42 | 4.87 | 4.23 | 17.2 | 8.84 | 24.2 | 15.6 | 47.3 | 10.8 | 27.4 |  |  | 9.36 | 24.4 | 12.4 | 27.8 | 4.69 | 27.4 | 14.3 | 50.1 |
| CCCCCCCCCCSS(=O)(=O)c1ccc(C)cc1 |  | 19.8 |  | 31.2 |  | 33.4 |  |  |  | 32.2 |  | 27 |  | 29.8 |  | 42.9 |  | 29.6 |  | 6.73 |
| CN1NC(c2ccccc2)=C(C#N)C(=O)CC1c1ccccc1Cl (stereo unspecified) |  | > 100 |  | > 100 |  | > 100 |  | > 100 |  |  |  |  |  | > 100 |  | > 100 |  | > 100 |  | > 100 |
| COc1cc(/C=C\c2cc(/C=C\c3ccc(O)c(OC)c3)n(C(=O)Nc3ccc(C(F)(F)F)cc3)n2)ccc1O | 4.01 | 14 | 3.02 | 12.7 | 2.56 | 5.9 |  |  | 3.33 | > 100 | 3.22 | 38.4 | 4.11 | > 100 | 4.02 | 66.7 | 2.09 | 6.59 | 2.73 | 20 |
| c1ccc(CN2CCC3(CC2)ONC2=NCCN23)cc1 | > 100 | > 100 | 30.5 | > 100 | 75 | > 100 | 31 | > 100 | 60.9 | > 100 | > 100 | > 100 | 88.4 | > 100 | 60.8 | > 100 |  |  | 47.3 | > 100 |
| N#C/C(=C/c1cccs1)c1cccs1 | > 100 | > 100 | > 100 | > 100 | > 100 | > 100 | > 100 | > 100 | > 100 | > 100 | > 100 | > 100 | > 100 | > 100 | > 100 | > 100 |  |  | > 100 | > 100 |
| CC[O+]=c1cccc2ssnc1-2 |  | > 100 |  | > 100 |  | > 100 |  | > 100 |  | > 100 |  | > 100 |  | > 100 |  | > 100 |  |  |  | > 100 |
| COc1ccc2c3c([nH]c2c1[N+](=O)[O-])C(C)N(C(=O)/C=C/c1ccccc1)CC3 (stereo unspecified) |  | > 100 |  | > 100 |  | > 100 |  | > 100 |  | > 100 |  | > 100 |  | 29.2 |  |  |  | 9.66 |  | > 100 |
| CO/N=C(\COc1ccc2c(=O)cc(-c3ccccc3)oc2c1)c1ccc(OC)cc1 | > 100 | > 100 | 24.9 | 70.3 | > 100 | > 100 | > 100 | > 100 | > 100 | > 100 | > 100 | > 100 | > 100 | > 100 | > 100 | > 100 | 74 | > 100 |  |  |
| Cn1c(-c2c(N)n(Cc3ccc(Cl)cc3)c3nc(C#N)c(C#N)nc23)nc2ccccc21 | 13.5 | > 50 | 7.15 | 18.7 | 5.26 | > 50 |  |  | 5.37 | 23.4 | 7.04 | 46.1 | 5.02 | 19.8 | 1.89 | 5.67 | 1.73 | > 50 |  |  |
| CN(C)c1ccc2c(SCC(=O)OCC(=O)[C@@]3(O)CC[C@H]4[C@@H]5CCC6=CC(=O)C=C[C@]6(C)[C@H]5C(=O)C[C@@]43C)c3ccc(N(C)C)cc3nc2c1 |  | > 77.5 |  | 60.8 |  | > 100 |  |  |  | 37 |  | > 81.2 |  | > 100 |  | > 100 |  | 82.5 |  | > 100 |
| CN1CCN(c2ccc(NC3=C(Cl)C(=O)c4ncccc4C3=O)cc2C(F)(F)F)CC1 | 1.62 | 3.09 | 1.72 | 3.13 | 1.35 | 3.37 |  |  | 3.14 | 12.4 | 2.66 | 8.44 | 18.8 | 38 |  |  | 0.874 | 6.66 | 0.304 | 2.67 |
| CCCC(=O)C(CC)/C(CCC(=O)N(Cc1ccccc1)Cc1ccccc1)=N/NC(=O)C[N+](C)(C)C (stereo unspecified) |  | > 100 |  | > 100 |  | > 100 |  | > 100 |  | > 100 |  | > 100 |  | > 100 |  | > 100 |  |  |  | > 100 |
| COc1ccc(/C=C2/CCOC2=O)cc1 | > 100 | > 100 |  |  | > 100 | > 100 | > 100 | > 100 | > 100 | > 100 |  |  | > 100 | > 100 | > 100 | > 100 |  |  | > 100 | > 100 |
| C=CC1(C)/C(=N\O)C(C)(CC)C(=O)N1O (stereo unspecified) |  | > 100 |  | > 100 |  | > 100 |  | > 100 |  | > 100 |  | > 100 |  | > 100 |  | > 100 |  |  |  | > 100 |
